Data as given in US9669047B2, “Method for producing polyphenol composition” (KAO CORPORATION, priority 2012, dated 2017).
Values after ≈ are worked out from the molar mass of the structure shown.

Legend:
[1] = Solubility of the raw polyphenols (A) and (B) in water at 25° C.; settings: for Solubility of (A) in water (25° C.): hardly water-soluble polyphenol (A) alone; for Solubility of (B) in water (25° C.): water-soluble polyphenol (B) alone
Description: (§1) The term “hardly water-soluble polyphenol” used in the present invention refers to the one having a poor solubility in water. […] The solubility represents herein a gram number of the solute being dissolved in 1 L of the solution with a unit of [g/L].

physchem = settings: 25 °C, water
Description: as §1

Row | Compound | Solubility of (B) in water (25° C.) [1] | Solubility of (A) in water (25° C.) [1] [g/L] | other results
1 | COc1ccc([C@@H]2CC(=O)c3c(O)cc(O[C@@H]4O[C@H](CO[C@@H]5O[C@@H](C)[C@H](O)[C@@H](O)[C@H]5O)[C@@H](O)[C@H](O)[C@H]4O)cc3O2)cc1O [Hesperidin, hesperidin] | – | 0.050 | –
2 | c1cc2c(cc1[C@H]1OC[C@H]3[C@@H]1CO[C@@H]3c1ccc3c(c1)OCO3)OCO2 [Sesamin, sesamin] | – | – | solubility (physchem): 0.14 µg/mL (≈ 0.395 µM)
3 | O=c1oc2c(O)c(O)cc3c(=O)oc4c(O)c(O)cc1c4c23 [Ellagic acid, ellagic acid] | – | 0.004 | solubility ([1]; 25 °C): 4 µg/mL (≈ 13.2 µM)

Continued, in another order:

Row | Solubility of (B) in water (25° C.) [1] | Compound | Solubility of (A) in water (25° C.) [1] [g/L] | other results
4 | ≥ 300 or g/L | glucosylhesperidin | – | –
5 | 15 g/L | O=C(O[C@@H]1Cc2c(O)cc(O)cc2O[C@@H]1c1cc(O)c(O)c(O)c1)c1cc(O)c(O)c(O)c1 [Catechin, epigallocatechin gallate] | – | –
